In publication PMC5608804, “Stepwise Evolution Improves Identification of Diverse Peptides Binding to a Protein Target” (Scientific Reports, 2017):

Molecular target: T1, streptavidin (Streptomyces avidinii, UniProt P22629)
T1 construct: purchased GE Healthcare (Little Chalfont, UK)
Test: Cy5-streptavidin binding on HotSpot discovery array, 5-mer L-peptide library
Settings: for S/B: signal to background ratio
Procedure, shortened: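 Array of 2,476,099 5-mer peptides (19 amino acids, no cysteine) with Gly-Ser linkers, probed overnight at 4 °C with 0.5 µg/ml Cy5-streptavidin in Tris pH 7.4 buffer containing casein or BSA plus Tween-20. Cy5 fluorescence read at 635 nm; peptides selected by signal-to-background >4 across three arrays.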

[1] = 5-mer L-peptide library array, Cy5-streptavidin, from average of three arrays
[2] = average of three arrays, L-peptide 5-mer library
[3] = 5-mer L-peptide library array, Cy5-streptavidin
[4] = 5-mer L-peptide library array, Cy5-streptavidin, from the average of three arrays
[5] = 5-mer L-peptide library, from the average of three arrays

T1 sequence (P22629 25-183): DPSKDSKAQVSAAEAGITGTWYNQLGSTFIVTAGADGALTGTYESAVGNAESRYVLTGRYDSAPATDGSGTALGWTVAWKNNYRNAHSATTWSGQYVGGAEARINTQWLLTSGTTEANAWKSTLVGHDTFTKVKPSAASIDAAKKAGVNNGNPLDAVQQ

Substance | S/B (signal to background ratio) [1] | further results
TMHPQ | 120.6 | –
TNHPM | 57.8 | –
TNHPQ | 135.8 | –
TPHPM | 44.1 | –
TPHPQ | 142.6 | –
TPSFG [L-amino acid 5-mer array peptide] | – | S/B (signal to background ratio) [2]: 6.3; S/B [3]: 6.3
TPSFH [L-amino acid 5-mer array peptide] | – | S/B (signal to background ratio) [2]: 6.7; S/B [3]: 6.7
TQHPQ | 120.0 | –
TRHPM | 53.7 | –
TRHPQ | 156.2 | –
TSHPQ | 122.6 | –
TTHPM | 29.8 | –
TVHPQ | – | S/B (signal to background ratio) [4]: 96.5
TWHPM | – | S/B (signal to background ratio) [4]: 59.8
TYHPM | 50.6 | –
TYHPQ | 168.9 | –
VAHPQ | – | S/B (signal to background ratio) [4]: 118.6
VDHPM | 26.0 | –
VEHPQ | 55.4 | –
VFHPM | 53.0 | –
VFHPQ | 152.8 | –
VHHPM | 54.5 | –
VHHPQ | 141.1 | –

Substance | S/B (signal to background ratio) [1] | further results
VHPMF | – | S/B [3]: 9.9
VHPMN | – | S/B [3]: 13.1
VHPMQ | – | S/B [3]: 9.6
VHPQA | 131.8 | –
VHPQF | 135.2 | –
VHPQG | – | S/B (signal to background ratio) [4]: 101.6
VHPQH | 31.7 | –
VHPQN | 153.6 | –
VHPQQ | 30.0 | –
VHPQS | – | S/B (signal to background ratio) [4]: 73.9
VHPQV | – | S/B (signal to background ratio) [4]: 61.3
VIHPM | 20.7 | –
VIHPQ | – | S/B (signal to background ratio) [4]: 83.6
VKHPM | 19.5 | –
VKHPQ | – | S/B (signal to background ratio) [4]: 64.6
VLHPM | 32.2 | –
VLHPQ | – | S/B (signal to background ratio) [4]: 115.6
VMHPQ | 127.9 | –
VNHPQ | 137.6 | –
VPHPM | 45.9 | –
VQHPQ | – | S/B (signal to background ratio) [4]: 114.0
VRHPM | – | S/B (signal to background ratio) [4]: 64.0
VRHPQ | 151.4 | –

Substance | S/B (signal to background ratio) [1] | further results
VSHPQ | 129.8 | –
VTHPQ | – | S/B (signal to background ratio) [4]: 113.4
VVHPM | – | S/B [3]: 15.5
VVHPQ | – | S/B (signal to background ratio) [4]: 79.7
VWHPM | – | S/B (signal to background ratio) [4]: 71.2
VWHPQ | 171.7 | –
VYHPQ | 168.1 | –
WAHPM | 135.8 | –
WAHPQ | 207.5 | –
WDAWE [L-amino acid 5-mer array peptide] | – | S/B (signal to background ratio) [5]: 4.0; S/B (signal to background ratio) [2]: 4.0
WEHPM | – | S/B (signal to background ratio) [4]: 69.6
WEHPQ | – | S/B (signal to background ratio) [4]: 98.3
WFHPM | – | S/B (signal to background ratio) [4]: 87.4
WFHPQ | 178.0 | –
WGHPH | – | S/B (signal to background ratio) [5]: 4.1
WGHPQ | 216.3 | –
WHGPQ | – | S/B (signal to background ratio) [5]: 4.5
WHHPM | 129.3 | –
WHHPQ | 200.9 | –
WHKPQ | – | S/B (signal to background ratio) [5]: 4.7
WHMPQ | – | S/B (signal to background ratio) [5]: 4.6
WHPDW | – | S/B [3]: 5.3
WHPMF | 27.4 | –

Substance | S/B (signal to background ratio) [1] | further results
WHPMK | – | S/B [3]: 14.5
WHPMM | 43.4 | –
WHPMN | – | S/B (signal to background ratio) [4]: 67.3
WHPMT | – | S/B [3]: 16.9
WHPMV | 49.4 | –
WHPMW | – | S/B (signal to background ratio) [5]: 4.9
WHPNR | – | S/B (signal to background ratio) [5]: 5.2
WHPPQ | – | S/B [3]: 9.3
WHPQA | 172.2 | –
WHPQF | 132.3 | –
WHPQG | 184.5 | –
WHPQH | – | S/B (signal to background ratio) [4]: 79.3
WHPQI | 41.5 | –
WHPQK | 42.1 | –
WHPQL | – | S/B [3]: 14.5
WHPQM | – | S/B (signal to background ratio) [4]: 100.1
WHPQN | 176.6 | –
WHPQP | – | S/B [3]: 10.7
WHPQS | 129.8 | –
WHPQT | 54.9 | –
WHPQV | 137.6 | –
WHPQY | 53.1 | –
WHVPQ | – | S/B (signal to background ratio) [5]: 4.3

Substance | S/B (signal to background ratio) [1] | further results
WIHPQ | 166.2 | –
WKHPM | – | S/B (signal to background ratio) [4]: 66.5
WKHPQ | 175.0 | –
WLHPQ | 190.9 | –
WMHPM | – | S/B (signal to background ratio) [4]: 117.2
WMHPQ | 194.6 | –
WNHPQ | 215.8 | –
WPHPM | – | S/B (signal to background ratio) [4]: 95.9
WPHPQ | 191.6 | –
WPPSL [L-amino acid 5-mer array peptide] | – | S/B (signal to background ratio) [2]: 7.7; S/B [3]: 7.7
WQHPM | 142.1 | –
WQHPQ | 199.1 | –
WRHPH | – | S/B (signal to background ratio) [5]: 4.2
WRHPM | 120.0 | –
WRHPQ | 235.3 | –
WSHPM | 129.1 | –
WSHPQ | 215.6 | –
WTHPM | – | S/B (signal to background ratio) [4]: 114.6
WTHPQ | 181.7 | –
WVHPM | – | S/B (signal to background ratio) [4]: 78.5
WVHPQ | 169.6 | –
WWHPM | 52.3 | –
WWHPQ | – | S/B (signal to background ratio) [4]: 111.4

Substance | S/B (signal to background ratio) [1] | further results
WYHHP | – | S/B (signal to background ratio) [5]: 5.0
YAHPM | – | S/B (signal to background ratio) [4]: 87.4
YAHPQ | 186.2 | –
YDHPM | – | S/B (signal to background ratio) [4]: 61.8
YDHPQ | – | S/B (signal to background ratio) [4]: 116.2
YEHPQ | – | S/B (signal to background ratio) [4]: 103.2
YFHPM | – | S/B (signal to background ratio) [4]: 69.8
YFHPQ | 183.4 | –
YGHPM | – | S/B (signal to background ratio) [4]: 108.1
YGHPQ | 210.5 | –
YHETH [L-amino acid 5-mer array peptide] | – | S/B (signal to background ratio) [2]: 6.0; S/B [3]: 6.0
YHFPQ | – | S/B (signal to background ratio) [5]: 4.9
YHHPM | – | S/B (signal to background ratio) [4]: 85.0
YHHPQ | 183.0 | –
YHPMA | – | S/B (signal to background ratio) [4]: 80.6
YHPMF | – | S/B [3]: 13.4
YHPMI | – | S/B (signal to background ratio) [5]: 4.8
YHPMM | 31.1 | –
YHPMN | 26.1 | –
YHPMV | 20.3 | –
YHPMY | – | S/B [3]: 12.0
YHPPQ | – | S/B (signal to background ratio) [5]: 4.7
YHPQA | 168.4 | –

Substance | S/B (signal to background ratio) [1] | further results
YHPQF | – | S/B (signal to background ratio) [4]: 105.0
YHPQG | 153.3 | –
YHPQH | – | S/B (signal to background ratio) [4]: 62.5
YHPQI | – | S/B [3]: 14.3
YHPQK | 19.8 | –
YHPQL | – | S/B [3]: 6.4
YHPQM | – | S/B (signal to background ratio) [4]: 77.9
YHPQN | 176.5 | –
YHPQQ | – | S/B (signal to background ratio) [4]: 76.2
YHPQT | 25.8 | –
YHPQY | 49.3 | –
YIHPQ | 131.4 | –
YLHPM | – | S/B (signal to background ratio) [4]: 70.7
YLHPQ | 152.2 | –
YMHPQ | 181.7 | –
YNHPQ | 193.0 | –
YPHPM | – | S/B (signal to background ratio) [4]: 98.4
YPHPQ | 190.5 | –
YQHPM | – | S/B (signal to background ratio) [4]: 84.6
